Broadly, the melting point is the temperature, or range, at which the solid turns liquid. What is called IC50 is the midpoint of a concentration-inhibition curve.

The source of these data is US10544149B2, “Bicyclic alkyne derivatives and uses thereof” (Agency for Science, Technology and Research, priority 2013, dated 2020).

Data set [1] relates to eIF4e phosphorylation in Hela cell line. The data set is described as follows: eIF4e phosphorylation inhibition in Hela cell line. To be noted: Homo sapiens, cellular. Format: cell-based.
In another data set the target is MNK2 (Homo sapiens, UniProt Q9HBH9). The data set is described as follows: MNK2 enzymatic assay. Format: biochemical.
For the next data set, the target named is MNK1 (Homo sapiens, UniProt Q9BUB5). The data set is described as follows: MNK1 enzymatic assay. The data set is classed as biochemical.

Structures can show the parent of a compound that is named as a salt.

Sequence of MNK2 (Q9HBH9 whole entry): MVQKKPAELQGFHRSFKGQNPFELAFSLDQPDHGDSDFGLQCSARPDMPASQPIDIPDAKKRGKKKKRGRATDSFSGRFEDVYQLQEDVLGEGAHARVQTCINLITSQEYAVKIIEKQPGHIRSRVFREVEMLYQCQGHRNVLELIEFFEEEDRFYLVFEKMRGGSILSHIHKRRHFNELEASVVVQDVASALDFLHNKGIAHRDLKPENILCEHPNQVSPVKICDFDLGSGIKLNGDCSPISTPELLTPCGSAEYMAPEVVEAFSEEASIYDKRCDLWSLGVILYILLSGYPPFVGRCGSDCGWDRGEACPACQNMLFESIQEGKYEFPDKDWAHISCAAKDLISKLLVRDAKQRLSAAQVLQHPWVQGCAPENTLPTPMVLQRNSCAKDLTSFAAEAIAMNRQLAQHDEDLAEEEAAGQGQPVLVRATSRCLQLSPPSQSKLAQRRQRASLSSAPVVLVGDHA
Sequence of MNK1 (Q9BUB5 whole entry): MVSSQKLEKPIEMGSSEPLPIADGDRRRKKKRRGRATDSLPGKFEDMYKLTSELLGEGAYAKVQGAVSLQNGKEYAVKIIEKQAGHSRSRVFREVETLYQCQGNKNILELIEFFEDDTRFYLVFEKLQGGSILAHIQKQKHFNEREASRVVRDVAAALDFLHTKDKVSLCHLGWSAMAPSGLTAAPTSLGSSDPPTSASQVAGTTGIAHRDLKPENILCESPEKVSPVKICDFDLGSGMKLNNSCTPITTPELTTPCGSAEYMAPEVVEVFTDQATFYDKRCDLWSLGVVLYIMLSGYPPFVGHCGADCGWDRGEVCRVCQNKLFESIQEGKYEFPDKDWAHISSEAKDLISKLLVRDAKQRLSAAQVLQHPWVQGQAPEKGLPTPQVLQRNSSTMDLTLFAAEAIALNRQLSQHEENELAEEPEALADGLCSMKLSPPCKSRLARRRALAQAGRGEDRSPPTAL

With `Nc1cc(C#Cc2cnc3ccc(-c4ccc(C(=O)N5CCOCC5)cc4F)nn23)ccn1` (as salt: salt) [Example 122, (4-(3-((2-aminopyridin-4-yl)ethynyl)imidazo[1,2-b]pyridazin-6-yl)-3-fluorophenyl)(morpholino)methanone formate salt], the melting point lay in the range of 78.2 to 79.4 °C.
`Nc1cc(C#Cc2cnn3ccc(-c4ccc(C(=O)N5CCOCC5)cc4F)nc23)ccn1` (as salt: salt) [Example 123, (4-(3-((2-aminopyridin-4-yl)ethynyl)pyrazolo[1,5-a]pyrimidin-5-yl)-3-fluorophenyl)(morpholino) methanone formic acid salt] showed a melting point of 57.6 to 58.9 °C.
The same measure, in the same setting: the value for `CN1CCN(C(=O)c2ccc(-c3ccc4ncc(C#Cc5ccnc(N)c5)n4n3)cc2)CC1` [Example 76, (4-(3-((2-aminopyridin-4-yl)ethynyl)imidazo[1,2-b]pyridazin-6-yl)phenyl)(4-methylpiperazin-1-yl)methanone] was 120 to 122 °C.
Regarding `CN1CCN(C(=O)c2ccc(-c3ccc4ncc(C#Cc5ccnc(N)c5)n4n3)cc2)CC1=O` [Example 77, 4-(4-(3-((2-aminopyridin-4-yl)ethynyl)imidazo[1,2-b]pyridazin-6-yl)benzoyl)-1-methylpiperazin-2-one], the melting point was in the range of 193.6 to 194.6 °C.
Same read-out and setting: the result for `Nc1cc(C#Cc2cnc3ccc(-c4ccc(C(=O)N5CCOCC5)c(Cl)c4)nn23)ccn1` [Example 82, (4-(3-((2-aminopyridin-4-yl)ethynyl)imidazo[1,2-b]pyridazin-6-yl)-2-chlorophenyl)(morpholino)methanone] reads 193.7 to 194.8 °C; that for `Nc1cc(C#Cc2cnc3ccc(-c4ccc(C(=O)N5CCOCC5)c(C(F)(F)F)c4)nn23)ccn1` [Example 83, (4-(3-((2-aminopyridin-4-yl)ethynyl)imidazo[1,2-b]pyridazin-6-yl)-2-(trifluoromethyl)phenyl) (morpholino)methanone], 258.5 to 258.9 °C.
`CC(=O)Nc1cc(C#Cc2cnc3ccc(-c4ccc(C(=O)N5CCN(C)C(=O)C5)cc4)nn23)ccn1` [Example 84, N-(4-((6-(4-(4-methyl-3-oxopiperazine-1-carbonyl)phenyl)imidazo[1,2-b]pyridazin-3-yl)ethynyl)pyridin-2-yl)acetamide] registered a melting point of 258.2 to 259.5 °C.
Same read-out and setting: the value for `CN1CCN(C(=O)c2ccc(-c3ccc4ncc(C#Cc5ccnc6[nH]ccc56)n4n3)cc2)CC1=O` [Example 85, 4-(4-(3-((1H-pyrrolo[2,3-b]pyridin-4-yl)ethynyl)imidazo[1,2-b]pyridazin-6-yl)benzoyl)-1-methylpiperazin-2-one] was 207.2 to 208.2 °C; that for `CC(=O)Nc1cc(C#Cc2cnc3ccc(-c4ccc(C(=O)N5CCN(C)CC5)cc4)nn23)ccn1` [Example 87, N-(4-((6-(4-(4-methylpiperazine-1-carbonyl)phenyl)imidazo[1,2-b]pyridazin-3-yl)ethynyl)pyridin-2-yl)acetamide] was 216.8 to 217.9 °C.
For the molecule `CC(=O)Nc1cc(C#Cc2cnc3ccc(-c4ccc(C(=O)N5CCNCC5)cc4)cn23)ccn1` [Example 101, N-(4-((6-(4-(piperazine-1-carbonyl)phenyl)imidazo[1,2-a]pyridin-3-yl)ethynyl)pyridin-2-yl)acetamide], the IC50 was less than 5 µM in data set [1], less than 0.5 µM against MNK2 and less than 0.5 µM against MNK1.
Turning to `Cc1c(N)cccc1Nc1cc(C#Cc2cnc3ccc(-c4ccc(C(=O)N5CCNCC5)cc4)cn23)ccn1` [Example 102, (4-(3-((2-(3-amino-2-methylphenylamino)pyridin-4-yl)ethynyl)imidazo[1,2-a]pyridin-6-yl)phenyl) (piperazin-1-yl)methanone], the IC50 was less than 5 µM in data set [1], less than 0.5 µM against MNK2 and less than 0.5 µM against MNK1.
As for `O=C(Nc1cc(C#Cc2cnc3ccc(-c4ccc(C(=O)N5CCNCC5)cc4)cn23)ccn1)c1ccccc1` [Example 103, (N-(4-((6-(4-(piperazine-1-carbonyl)phenyl)imidazo[1,2-a]pyridin-3-yl)ethynyl)pyridin-2-yl)benzamide)], the IC50 in data set [1] was less than 5 µM; on MNK2, less than 0.5 µM; on MNK1, less than 0.5 µM.
In the case of `O=C(c1ccc(-c2ccc3ncc(C#Cc4ccnc5[nH]ncc45)n3c2)cc1)N1CCNCC1` [Example 104, (4-(3-((1H-pyrazolo[3,4-b]pyridin-4-yl)ethynyl)imidazo[1,2-a]pyridin-6-yl)phenyl) (piperazin-1-yl)methanone], the IC50 was less than 5 µM in data set [1], less than 0.5 µM at MNK2 and less than 0.5 µM against MNK1.
On to `O=C(c1ccc(-c2ccc3ncc(C#Cc4ccnc(Nc5cccnc5)c4)n3c2)cc1)N1CCNCC1` [Example 105, piperazin-1-yl(4-(3-((2-(pyridin-3-ylamino)pyridin-4-yl)ethynyl)imidazo[1,2-a]pyridin-6-yl)phenyl)methanone], for which the IC50 was less than 5 µM in data set [1], less than 0.5 µM against MNK2 and less than 0.5 µM against MNK1.
With `Cc1ccccc1Nc1cc(C#Cc2cnc3ccc(-c4ccc(C(=O)N5CCNCC5)cc4)cn23)ccn1` [Example 106, piperazin-1-yl(4-(3-((2-(o-tolylamino)pyridin-4-yl)ethynyl)imidazo[1,2-a]pyridin-6-yl)phenyl)methanone], the IC50 was less than 5 µM in data set [1], less than 0.5 µM on MNK2 and less than 0.5 µM against MNK1.
As to `Cc1ncccc1Nc1cc(C#Cc2cnc3ccc(-c4ccc(C(=O)N5CCNCC5)cc4)cn23)ccn1` [Example 107, (4-(3-((2-(2-methylpyridin-3-ylamino)pyridin-4-yl)ethynyl)imidazo[1,2-a]pyridin-6-yl)phenyl)(piperazin-1-yl)methanone], the IC50 in data set [1] is less than 5 µM; on MNK2, less than 0.5 µM; against MNK1, less than 0.5 µM.
Take `Nc1cc(C#Cc2cnc3ccc(-c4ccc(C(=O)N5CCNCC5)cc4)cn23)ccn1` [Example 108, (4-(3-((2-aminopyridin-4-yl)ethynyl)imidazo[1,2-a]pyridin-6-yl)phenyl)(piperazin-1-yl)methanone]: the IC50 in data set [1] was less than 5 µM; against MNK2, less than 0.5 µM; against MNK1, less than 0.5 µM.
As to `Nc1cc(C#Cc2cnc3ccc(-c4ccc(C(=O)N5CCNCC5)cc4)cn23)c2cc[nH]c2n1` [Example 111, (4-(3-((6-amino-1H-pyrrolo[2,3-b]pyridin-4-yl)ethynyl)imidazo[1,2-a]pyridin-6-yl)phenyl)(piperazin-1-yl)methanone], the IC50 in data set [1] was less than 5 µM; on MNK2 it was less than 0.5 µM; against MNK1 it was less than 0.5 µM.
For the molecule `Nc1cc(C#Cc2cnc3ccc(-c4ccc(C(=O)N5CCOCC5)cc4F)nn23)ccn1` [Example 122, (4-(3-((2-aminopyridin-4-yl)ethynyl)imidazo[1,2-b]pyridazin-6-yl)-3-fluorophenyl)(morpholino)methanone formate salt], the IC50 in data set [1] is less than 5 µM; against MNK2, less than 0.5 µM; against MNK1, less than 0.5 µM.
In the case of `Nc1cc(C#Cc2cnn3ccc(-c4ccc(C(=O)N5CCOCC5)cc4F)nc23)ccn1` [Example 123, (4-(3-((2-aminopyridin-4-yl)ethynyl)pyrazolo[1,5-a]pyrimidin-5-yl)-3-fluorophenyl)(morpholino) methanone formic acid salt], the concentration for half-maximal inhibition (IC50) in data set [1] was less than 5 µM; against MNK2, less than 0.5 µM; against MNK1 it was less than 0.5 µM.
